From patent US6610853B1, “N-(phenylsulfonyl)picolinamide derivatives, process for producing the same, and herbicide” (Kureha Kagaku Kogyo K.K., priority 2000, dated 2003)

Columns and labels:
Assay in all cases: Test on herbicidal activity by foliar application
Assay type in all cases: in vivo
Settings in all cases: foliar spray, 1 kg/ha, plants at 1-2 leaf stage in pots, evaluated 14 days after spraying
[1] = system: Sinapis arvensis
Description: (§1) Test on Herbicidal Activity by Foliar Application: Herbicidal solutions of each test compounds, which were prepared by dissolving at predetermined concentrations such a wettable powder of the test compound as that described in the above Formulation Example, were sprayed at dosages of 1 kg/ha over foliar parts of Amaranthus retroflexus, Bidens pilosa, Sinapis arvensis, Stellaria media, Solanum nigrum, Abutilon theophrasti, Convolvulus arvensis, Matricaria chamomilla, Galium aparine, Veronica hederaefolia, and Setaria viridis (each test plant is 1-2 leaf stage) which were grown in pots. 14 days latter after spraying, its herbicidal activity was evaluated in accordance with the below-described system. Herbicidal Activity 1: less than 30% inhibition 2: 30% or more-50% inhibition 3: 50% or more-70% inhibition 4: 70% or more-90% inhibition 5: 90% or more inhibition

[2] = system: Solanum nigrum
Description: as §1

[3] = system: Matricaria chamomilla
Description: as §1

[4] = system: Veronica hederaefolia
Description: as §1

[5] = system: Convolvulus arvensis
Description: as §1

[6] = system: Abutilon theophrasti
Description: as §1

[7] = system: Stellaria media
Description: as §1

[8] = system: Setaria viridis
Description: as §1

[9] = system: Bidens pilosa
Description: as §1

[10] = system: Galium aparine
Description: as §1

[11] = system: Amaranthus retroflexus
Description: as §1

Cc1nc(C(=O)NS(=O)(=O)c2ccccc2S(=O)(=O)N(C)C)ccc1[N+](=O)[O-] [Compound I-868, N-[[2-(N,N-Dimethylaminosulfonyl)phenyl]-sulfonyl]-6-methyl-5-nitro-2-pyridinecarboxamide]
Herbicidal activity, Sinapis arvensis [1]: 5 (90% or more inhibition)
Herbicidal activity, Solanum nigrum [2]: 4 (70% or more-90% inhibition)
Herbicidal activity, Matricaria chamomilla [3]: 2 (30% or more-50% inhibition)
Herbicidal activity, Veronica hederaefolia [4]: 3 (50% or more-70% inhibition)
Herbicidal activity, Convolvulus arvensis [5]: 3 (50% or more-70% inhibition)
Herbicidal activity, Abutilon theophrasti [6]: 3 (50% or more-70% inhibition)
Herbicidal activity, Stellaria media [7]: 4 (70% or more-90% inhibition)
Herbicidal activity, Setaria viridis [8]: 3 (50% or more-70% inhibition)
Herbicidal activity, Bidens pilosa [9]: 5 (90% or more inhibition)
Herbicidal activity, Galium aparine [10]: 5 (90% or more inhibition)
Herbicidal activity, Amaranthus retroflexus [11]: 3 (50% or more-70% inhibition)

COc1ccc(C(=O)NS(=O)(=O)c2ccccc2S(=O)(=O)N(C)C)nc1 [Compound I-864]
Herbicidal activity, Sinapis arvensis [1]: 5 (90% or more inhibition)
Herbicidal activity, Solanum nigrum [2]: 4 (70% or more-90% inhibition)
Herbicidal activity, Matricaria chamomilla [3]: 5 (90% or more inhibition)
Herbicidal activity, Veronica hederaefolia [4]: 4 (70% or more-90% inhibition)
Herbicidal activity, Convolvulus arvensis [5]: 3 (50% or more-70% inhibition)
Herbicidal activity, Abutilon theophrasti [6]: 5 (90% or more inhibition)
Herbicidal activity, Stellaria media [7]: 5 (90% or more inhibition)
Herbicidal activity, Setaria viridis [8]: 4 (70% or more-90% inhibition)
Herbicidal activity, Bidens pilosa [9]: 5 (90% or more inhibition)
Herbicidal activity, Galium aparine [10]: 4 (70% or more-90% inhibition)
Herbicidal activity, Amaranthus retroflexus [11]: 3 (50% or more-70% inhibition)

CN(C)S(=O)(=O)c1ccccc1S(=O)(=O)NC(=O)c1cccc(Cl)n1 [Compound I-861, N-[[2-(N,N-Dimethylaminosulfonyl)phenyl]-sulfonyl)-6-chloro-2-pirydinecarboxamide]
Herbicidal activity, Sinapis arvensis [1]: 5 (90% or more inhibition)
Herbicidal activity, Solanum nigrum [2]: 5 (90% or more inhibition)
Herbicidal activity, Matricaria chamomilla [3]: 5 (90% or more inhibition)
Herbicidal activity, Veronica hederaefolia [4]: 4 (70% or more-90% inhibition)
Herbicidal activity, Convolvulus arvensis [5]: 5 (90% or more inhibition)
Herbicidal activity, Abutilon theophrasti [6]: 5 (90% or more inhibition)
Herbicidal activity, Stellaria media [7]: 5 (90% or more inhibition)
Herbicidal activity, Setaria viridis [8]: 5 (90% or more inhibition)
Herbicidal activity, Bidens pilosa [9]: 5 (90% or more inhibition)
Herbicidal activity, Galium aparine [10]: 5 (90% or more inhibition)
Herbicidal activity, Amaranthus retroflexus [11]: 5 (90% or more inhibition)

COC(=O)c1ccccc1S(=O)(=O)NC(=O)c1ccc(OC)cn1 [Compound I-234, 2-[[[(5-Methoxypyridin-2-yl)carbonyl]amino]-sulfonyl]benzoic Acid Methyl Ester]
Herbicidal activity, Sinapis arvensis [1]: 5 (90% or more inhibition)
Herbicidal activity, Solanum nigrum [2]: 5 (90% or more inhibition)
Herbicidal activity, Matricaria chamomilla [3]: 5 (90% or more inhibition)
Herbicidal activity, Veronica hederaefolia [4]: 4 (70% or more-90% inhibition)
Herbicidal activity, Convolvulus arvensis [5]: 4 (70% or more-90% inhibition)
Herbicidal activity, Abutilon theophrasti [6]: 5 (90% or more inhibition)
Herbicidal activity, Stellaria media [7]: 5 (90% or more inhibition)
Herbicidal activity, Setaria viridis [8]: 4 (70% or more-90% inhibition)
Herbicidal activity, Bidens pilosa [9]: 5 (90% or more inhibition)
Herbicidal activity, Galium aparine [10]: 4 (70% or more-90% inhibition)
Herbicidal activity, Amaranthus retroflexus [11]: 5 (90% or more inhibition)
